Results published in article PMC10726475, “Atypical N-Alkyl to N-Noralkoxy Switch in a Dual cSRC/BCR-ABL1 Kinase Inhibitor Improves Drug Efflux and hERG Affinity” (ACS Medicinal Chemistry Letters, 2023).
Where “and” joins values, the source holds several entries; their conditions need not be identical. Equal entries are not always repeated. Where two headings read alike, the source gives them in different places. Blank lines part the entries; values can stand above or below the molecule they belong to.

Key:
[1] = Plasma protein binding by equilibrium dialysis, human; assay type: in vitro ADME
[2] = Plasma protein binding by equilibrium dialysis, rat; assay type: in vitro ADME
[3] = Plasma protein binding by equilibrium dialysis, mouse; assay type: in vitro ADME
[4] = cited from earlier work; for ΔpKa: relative to simple tertiary amine 19, δ-position substituent
[5] = logD7.4 by shake-flask method; assay type: physicochemical; settings: pH 7.4
[6] = Solubility in aqueous buffer at pH 7.4; assay type: physicochemical; settings: aqueous buffer at pH 7.4, n = 1; read-out: aq sol.
[7] = pKa determination by pH-metric method; assay type: physicochemical
Experimental: Figure 3 Matched molecular pair (MMP) analysis on the 2-methoxyphenoxy-propyl-N-methylpiperazine scaffold and pKa values of related δ-alkoxy substituted amines. (A) MMP analysis of a bosutinib fragment. All measurements were assayed by Pharmaron Inc., and values presented represent the mean of n = 2 technical replicates, unless otherwise specified. logD7.4 was determined by the shake-flask method. […] (B) Reported[54] pKa values of related dimethylamines highlighting similarities in pKa values of δ-alkoxy substitution patterns. TEXT PRINTED IN THE PICTURE: (A) 17: logD7.4: 0.9; Aq. Sol. (μM): 277; pKa1: 4.2; pKa2: 8.1 | (A) 18: logD7.4: 1.0; Aq. Sol. […]
Inc. using methods previously derscribed.1 […]
Shedlovsky extrapolation for the pH-metric pKa method. […]

[8] = pH-metric method, range -12, read-out: pKa1

fu, plasma % / %Unbound ([1]; 5 μM, equilibrium dialysis): 0.82%
recovery ([1]; both sexes): 98.6%
remaining at 6 h, 5 μM ([1]; both sexes): 102%
fraction unbound at 5 μM ([1]; both sexes, read-out: %Bound (converted)): 0.0082
fu, plasma % / %Unbound ([2]; 5 μM, equilibrium dialysis): 0.67%
recovery ([2]; both sexes, SD): 103%
fraction unbound at 5 μM ([2]; both sexes, SD, read-out: fu, plasma % / %Unbound (converted)): 0.0067
%Bound [3]: 99.42%
recovery ([3]; both sexes, CD-1): 96.8%
remaining at 6 h, 5 μM ([3]; both sexes, CD-1): 96.3%
fraction unbound at 5 μM ([3]; both sexes, CD-1, 5 μM, equilibrium dialysis, read-out: fu, plasma % / %Unbound): 0.0058
Compound: CC(=O)N1CCN(c2ccc(OCC3COC(Cn4ccnc4)(c4ccc(Cl)cc4Cl)O3)cc2)CC1 (stereo not shown) [Ketoconazole]

Compound: COCCCN(C)C [compound 20]
ΔpKa [4]: −0.8

Compound: Nc1ccc2cc3ccccc3cc2c1 [2-Aminoanthracene]
Count (# of wells) (Salmonella strain TA98; TA98+S9, 2.0E-06 M): 48
Count (# of wells) (Salmonella strain TA98; TA98-S9, 1.0E-06 M): 1
Positive Significance (- to +++) (Salmonella strain TA98; TA98-S9, 1.0E-06 M): -
Count (# of wells) (Salmonella strain TA100; TA100+S9, 1.0E-06 M): 17
Positive Significance (- to +++) (Salmonella strain TA100; TA100+S9, 1.0E-06 M): ++ (strong positive, if P < 0.01)
Count (# of wells) (Salmonella strain TA100; TA100-S9, 1.0E-06 M): 2
Positive Significance (- to +++) (Salmonella strain TA100; TA100-S9, 1.0E-06 M): -
Count (# of wells) (Salmonella strain TA1535; TA1535+S9, 1.0E-06 M): 12
Count (# of wells) (Salmonella strain TA1535; TA1535-S9, 1.0E-06 M): 0
Positive Significance (- to +++) (Salmonella strain TA1535; TA1535-S9, 1.0E-06 M): -
Count (# of wells) (Salmonella strain TA1537; TA1537+S9, 2.0E-06 M): 11
Positive Significance (- to +++) (Salmonella strain TA1537; TA1537+S9, 2.0E-06 M): ++ (strong positive, if P < 0.01)
Count (# of wells) (Salmonella strain TA1537; TA1537-S9, 1.0E-06 M): 0
Positive Significance (- to +++) (Salmonella strain TA1537; TA1537-S9, 1.0E-06 M): -

Compound: NO [hydroxylamine]
pKa ([4]; simple hydroxylamine): 5.9

logD at 2 h [5]: 1
solubility [6]: > 250 µM and 287 µM
pKa [7, 8]: 7.4
ΔpKa ([7]; terminal N-methylamine of 18 relative to 17): −0.7
Compound: COc1ccccc1OCCON1CCN(C)CC1 [compound 18]

logD at 2 h [5]: 0.9
solubility [6]: > 250 µM and 277 µM
pKa ([7]; pH 2, pH-metric method, range pH 2-12, read-out: pKa2): 8.1
pKa [7, 8]: 4.2
Compound: COc1ccccc1OCCCN1CCN(C)CC1 [compound 17]

Compound: Nc1c2ccccc2nc2ccccc12 [9-Aminoacridine]
Count (# of wells) (Salmonella strain TA98; TA98+S9, 1.0E-05 M): 1
Positive Significance (- to +++) (Salmonella strain TA98; TA98+S9, 1.0E-05 M): -
Count (# of wells) (Salmonella strain TA98; TA98-S9, 1.0E-05 M): 2
Positive Significance (- to +++) (Salmonella strain TA98; TA98-S9, 1.0E-05 M): -
Count (# of wells) (Salmonella strain TA100; TA100+S9, 1.0E-05 M): 2
Positive Significance (- to +++) (Salmonella strain TA100; TA100+S9, 1.0E-05 M): -
Count (# of wells) (Salmonella strain TA100; TA100-S9, 1.0E-05 M): 0
Positive Significance (- to +++) (Salmonella strain TA100; TA100-S9, 1.0E-05 M): -
Count (# of wells) (Salmonella strain TA1535; TA1535+S9, 1.0E-05 M): 1
Positive Significance (- to +++) (Salmonella strain TA1535; TA1535+S9, 1.0E-05 M): -
Count (# of wells) (Salmonella strain TA1535; TA1535-S9, 1.0E-05 M): 0
Positive Significance (- to +++) (Salmonella strain TA1535; TA1535-S9, 1.0E-05 M): -
Count (# of wells) (Salmonella strain TA1537; TA1537+S9, 1.0E-05 M): 31
Count (# of wells) (Salmonella strain TA1537; TA1537-S9, 1.0E-05 M): 25

Compound: CN(C)CCCO [compound 21]
ΔpKa [4]: −0.9

Compound: O=[N+]([O-])c1ccc2c(c1)Cc1ccccc1-2 [2-Nitrofluorene]
Count (# of wells) (Salmonella strain TA98; TA98+S9, 3.0E-05 M): 28
Count (# of wells) (Salmonella strain TA98; TA98-S9, 3.0E-05 M): 30
Count (# of wells) (Salmonella strain TA100; TA100+S9, 3.0E-05 M): 0
Positive Significance (- to +++) (Salmonella strain TA100; TA100+S9, 3.0E-05 M): -
Count (# of wells) (Salmonella strain TA100; TA100-S9, 3.0E-05 M): 2
Positive Significance (- to +++) (Salmonella strain TA100; TA100-S9, 3.0E-05 M): -
Count (# of wells) (Salmonella strain TA1535; TA1535+S9, 3.0E-05 M): 0
Positive Significance (- to +++) (Salmonella strain TA1535; TA1535+S9, 3.0E-05 M): -
Count (# of wells) (Salmonella strain TA1535; TA1535-S9, 3.0E-05 M): 0
Positive Significance (- to +++) (Salmonella strain TA1535; TA1535-S9, 3.0E-05 M): -
Count (# of wells) (Salmonella strain TA1537; TA1537+S9, 3.0E-05 M): 2
Positive Significance (- to +++) (Salmonella strain TA1537; TA1537+S9, 3.0E-05 M): -
Count (# of wells) (Salmonella strain TA1537; TA1537-S9, 3.0E-05 M): 6
Positive Significance (- to +++) (Salmonella strain TA1537; TA1537-S9, 3.0E-05 M): + (weak positive, if P < 0.05)

Compound: CN(N=O)C(=O)N[C@H]1C(O)O[C@H](CO)[C@@H](O)[C@@H]1O (mixture of isomers) [Streptozotocin]
Count (# of wells) (Salmonella strain TA98; TA98+S9, 2.5E-06 M): 6
Positive Significance (- to +++) (Salmonella strain TA98; TA98+S9, 2.5E-06 M): + (weak positive, if P < 0.05)
Count (# of wells) (Salmonella strain TA98; TA98-S9, 2.5E-06 M): 1
Positive Significance (- to +++) (Salmonella strain TA98; TA98-S9, 2.5E-06 M): -
Count (# of wells) (Salmonella strain TA100; TA100+S9, 2.5E-06 M): 19
Count (# of wells) (Salmonella strain TA100; TA100-S9, 2.5E-06 M): 39
Count (# of wells) (Salmonella strain TA1535; TA1535+S9, 2.5E-06 M): 48
Count (# of wells) (Salmonella strain TA1535; TA1535-S9, 2.5E-06 M): 46
Count (# of wells) (Salmonella strain TA1537; TA1537+S9, 2.5E-06 M): 0
Positive Significance (- to +++) (Salmonella strain TA1537; TA1537+S9, 2.5E-06 M): -
Count (# of wells) (Salmonella strain TA1537; TA1537-S9, 2.5E-06 M): 1
Positive Significance (- to +++) (Salmonella strain TA1537; TA1537-S9, 2.5E-06 M): -
